According to paper PMC6602958, “Pharmacokinetics of anti-infectious reagents in silkworms” (Scientific Reports, 2019):
In brackets after ≈: the same amount, converted by molar mass. Like-named read-outs stand apart in the source and are kept apart here.

Assays:
Candida albicans [1] = assay: Antifungal activity (MIC) by micro dilution with or without silkworm hemolymph; type: cell-based
Protocol: Antimicrobial and antifungal activities of each compound were measured by a micro dilution method[19],[20]. To measure protein binding to antifungal activity, silkworm hemolymph was collected by cutting the pseudopodium using scissors, and centrifuged at 3000 rpm for 5 min at 4 °C.

Candida albicans [2] = assay: Silkworm infection model with Candida albicans (ED50); type: in vivo, Bombyx mori (silkworm); conditions: silkworm infection model with Candida albicans
cytochrome P450 [3] = assay: Metabolism of luciferin derivatives in cultured silkworm midgut (P450-Glo, luminometer); type: in vitro ADME, Bombyx mori (silkworm); conditions: silkworm midgut incubated with luciferin substrate at 30 °C
cytochrome P450 [4] = assay: Metabolism of luciferin-ME by microsomal fractions from the silkworm midgut; type: biochemical, Bombyx mori (silkworm); conditions: Lineweaver-Burk plot
Protocol: Silkworms were immersed in buffer (10 mM HEPES/NaOH, 0.9% NaCl, pH7.9), and organs were isolated and homogenized in a buffer (100 mM sodium phosphate, 1 mM EDTA, 2 mM benzamidine, 10% glycerol) by a glass-Teflon homogenizer. The tissue homogenates were centrifuged at 9000 × g for 10 min at 4 °C. The supernatant was further centrifuged at 49,000 rpm for 30 min at 4 °C. The precipitate was suspended in buffer (100 mM sodium phosphate, 1 mM EDTA, 2 mM benzamidine, 10% glycerol) and frozen at −80 °C after flash-freezing with liquid nitrogen until use.
Microsomes and substrates were suspended in final 0.25 ml buffer comprising 0.1 M sodium phosphate buffer (pH 7.5) and 0.1 mM EDTA, and pre-incubated for 5 min at 30 °C. A cytochrome P450 reaction was initiated by adding a NADPH-generating system containing 3.3 mM glucose-6-phosphate, 1.25 mM NADP, 3.3 mM MgCl2, and 0.25 U glucose-6-phosphate dehydrogenase as a final concentration.
Microsome fractions were prepared from the silkworm midgut, and incubated with luciferin-ME for 5 min at 30°C. The reactions were initiated by the addition of an NADPH-regeneration system. Production of luciferin was determined using a luminometer. (a) Titration of luciferin-ME. (b) Lineweaver Burk plot made from the titration curve.

[5] = Pharmacokinetics of antibiotics in silkworm hemolymph after injection (HPLC); conditions: for HPLC peak area in hemolymph: raw data of Fig. 1; for Cltot (total body clearance): silkworm, injection into hemolymph, dose per compound 10-50 mg/kg
Protocol: Antibiotics were injected into silkworm hemolymph and hemolymph was collected by cutting the legs at the indicated time.
Antibiotics dissolved in saline were injected into the hemolymph of 5th instar silkworms using a 1-mL syringe attached to a 27 G needle. Hemolymph was harvested from abdominal appendages by cutting them with scissors at the indicated time-points after administration, and mixed with an equal volume of acetone. Samples were centrifuged at 15,000 rpm for 5 min at 4 °C, and the supernatants were evaporated with a centrifuge evaporator[18]. The dried materials were dissolved in 50% methanol and filtrated through a 0.45-µm filter. […] The amount of antibiotics in the sample was quantified from the peak area of the chromatogram.

[6] = rabbit, dose 10 mg/kg; cited from earlier work
[7] = human serum; ref Schafer-Korting et al. 27; cited from earlier work
cytochrome P450 [8] = assay: Decay of cytochrome P450 substrates in in vitro culture of the silkworm midgut (HPLC); conditions: for HPLC peak area of substrate, Sample 1 / HPLC peak area of substrate, Sample 2: midgut culture, raw data of Fig. 3
Protocol: Silkworm midgut was incubated in medium with cytochrome P450 substrates at 30 °C. The samples were collected, extracted by acetone, and evaporated. The amounts of substrates were determined by HPLC analysis.
Silkworms (5th instar, 5 days) were dissected in a buffer (10 mM HEPES/NaOH, 0.9% NaCl, pH 7.9), and isolated organs were incubated with 3 mL TC-100 medium containing 10% fetal bovine serum, 50 µg/ml gentamicin, and substrates for the metabolic reaction. Whole samples (medium and organ) were homogenized and extracted by equal volumes of acetone followed by evaporation. Extracted samples were dissolved in 50 mM NaOAc buffer and treated with beta-glucosidase to measure the fluorescence of metabolized 7-ethoxycoumarin[6]. […] Samples for HPLC were dissolved in 50% methanol. HPLC analysis was performed using a PEGASIL ODS SP column (φ4.5 mm × 250 mm) with isocratic elution at a flow rate of 1 ml/min.

[9] = Protein-binding capacity in silkworm hemolymph (filter unit, HPLC)
[10] = set-up: method as in PMID 3210270; conditions: sheep, dose 10 mg/kg; cited from earlier work
[11] = read-out: MIC with 10% hemolymph (B), with 10% silkworm hemolymph
[12] = without silkworm hemolymph, read-out: MIC without hemolymph (A)

Clc1ccccc1C(c1ccccc1)(c1ccccc1)n1ccnc1 [Clotrimazole]
MIC (Candida albicans [1]; [11]): 1.3 µg/mL (≈ 3.77 µM)
MIC (Candida albicans [1]; [12]): 0.04 µg/mL (≈ 0.116 µM)
fraction unbound at 10 min, 10 µM (in vitro): < 0.01
ED50 (Candida albicans [2]): > 10 mg/kg

COc1ccc2nc(C3=NC(C(=O)O)CS3)sc2c1 (stereo not drawn) [Luciferin-ME]
Production of luciferin (RFU/organ) (cytochrome P450 [3]): 58,500 RFU/organ
Km (cytochrome P450 [4]): 7.8 µM
Vmax (cytochrome P450 [4]): 3.0 pmol/min/mg protein

CN(C)[C@@H]1C(O)=C(C(N)=O)C(=O)[C@@]2(O)C(O)=C3C(=O)c4c(O)cccc4[C@@](C)(O)[C@H]3C[C@@H]12 [Tetracycline]
HPLC peak area in hemolymph ([5]; 0.1 min after injection): 10505876
HPLC peak area in hemolymph ([5]; 1 min after injection): 8079061
HPLC peak area in hemolymph ([5]; 5 min after injection): 4188656
HPLC peak area in hemolymph ([5]; 10 min after injection): 3076056
HPLC peak area in hemolymph ([5]; 20 min after injection): 2727973
HPLC peak area in hemolymph ([5]; 30 min after injection): 1928231
HPLC peak area in hemolymph ([5]; 60 min after injection): 2239912
HPLC peak area in hemolymph ([5]; 90 min after injection): 1941121
HPLC peak area in hemolymph ([5]; 120 min after injection): 1803643
HPLC peak area in hemolymph ([5]; 180 min after injection): 1414738
HPLC peak area in hemolymph ([5]; 240 min after injection): 1202608
Time-course of the decrease in concentration in hemolymph (in words) ([5]; after administration into hemolymph, alpha and beta phase, two-compartment model): biphasic
Cltot (total body clearance) ([5]; two-compartment model): 0.07 mL/g/h
Cltot [6]: 0.35 mL/g/h

CC(=O)N1CCN(c2ccc(OCC3COC(Cn4ccnc4)(c4ccc(Cl)cc4Cl)O3)cc2)CC1 (stereo not drawn) [Ketoconazole]
Protein binding (%) mammal [7]: 99%
MIC (Candida albicans [1]; [11]): 1.3 µg/mL (≈ 2.45 µM)
MIC (Candida albicans [1]; [12]): 0.04 µg/mL (≈ 0.0753 µM)
Metabolism in the silkworm midgut (in words) (cytochrome P450 [8]; in vitro organ culture, up to 20 h incubation): metabolized in the silkworm midgut
HPLC peak area of substrate, Sample 1 (cytochrome P450 [8]; 0 h): 250139
HPLC peak area of substrate, Sample 2 (cytochrome P450 [8]; 0 h): 234783
HPLC peak area of substrate, Sample 1 (cytochrome P450 [8]; 1 h): 277669
HPLC peak area of substrate, Sample 2 (cytochrome P450 [8]; 1 h): 251170
HPLC peak area of substrate, Sample 1 (cytochrome P450 [8]; 4 h): 205212
HPLC peak area of substrate, Sample 2 (cytochrome P450 [8]; 4 h): 213216
HPLC peak area of substrate, Sample 1 (cytochrome P450 [8]; 20 h): 217123
HPLC peak area of substrate, Sample 2 (cytochrome P450 [8]; 20 h): 164912
ED50 (Candida albicans [2]): > 10 mg/kg
fraction unbound at 10 min, 10 µM [9]: < 0.01
Protein-binding capacity in silkworm hemolymph (in words) ([9]; silkworm hemolymph): high protein-binding capacities in silkworm hemolymph

CO[C@H]1/C=C/O[C@@]2(C)Oc3c(C)c(O)c4c(O)c(c(/C=N/N5CCN(C)CC5)c(O)c4c3C2=O)NC(=O)/C(C)=C\C=C\[C@H](C)[C@H](O)[C@@H](C)[C@@H](O)[C@@H](C)[C@H](OC(C)=O)[C@@H]1C [Rifampicin]
HPLC peak area in hemolymph ([5]; 1 min after injection): 1080705
HPLC peak area in hemolymph ([5]; 10 min after injection): 246911
HPLC peak area in hemolymph ([5]; 30 min after injection): 125859
HPLC peak area in hemolymph ([5]; 45 min after injection): 103195
HPLC peak area in hemolymph ([5]; 75 min after injection): 64446
HPLC peak area in hemolymph ([5]; 90 min after injection): 59307
HPLC peak area in hemolymph ([5]; 150 min after injection): 20209
HPLC peak area in hemolymph ([5]; 180 min after injection): 11026
HPLC peak area in hemolymph ([5]; 240 min after injection): 4977
HPLC peak area in hemolymph ([5]; 360 min after injection): 2816
Time-course of the decrease in concentration in hemolymph (in words) ([5]; in vivo): biphasic
Difference in total clearance between silkworm and mammal ([5]; silkworm (Bombyx mori), in vivo): 10 fold
Cltot (total body clearance) ([5]; two-compartment model): 2.11 mL/g/h
Cltot [10]: 0.31 mL/g/h
Vdss [10]: 1.3 mL/g
